The record followed here is article PMC11167047 (Cell Death Discovery, 2024).

Each structure is given as a SMILES string.

What all share (experiment): kinome screen (33PanQinase)
Common to all, as to assay type: biochemical

Assay [1] deals with T1, EPHB1 (Homo sapiens, UniProt P54762).
T1 construct: purchased Reaction Biology Europe GmbH (formerly ProQinase)
T1 sequence (P54762 18-984): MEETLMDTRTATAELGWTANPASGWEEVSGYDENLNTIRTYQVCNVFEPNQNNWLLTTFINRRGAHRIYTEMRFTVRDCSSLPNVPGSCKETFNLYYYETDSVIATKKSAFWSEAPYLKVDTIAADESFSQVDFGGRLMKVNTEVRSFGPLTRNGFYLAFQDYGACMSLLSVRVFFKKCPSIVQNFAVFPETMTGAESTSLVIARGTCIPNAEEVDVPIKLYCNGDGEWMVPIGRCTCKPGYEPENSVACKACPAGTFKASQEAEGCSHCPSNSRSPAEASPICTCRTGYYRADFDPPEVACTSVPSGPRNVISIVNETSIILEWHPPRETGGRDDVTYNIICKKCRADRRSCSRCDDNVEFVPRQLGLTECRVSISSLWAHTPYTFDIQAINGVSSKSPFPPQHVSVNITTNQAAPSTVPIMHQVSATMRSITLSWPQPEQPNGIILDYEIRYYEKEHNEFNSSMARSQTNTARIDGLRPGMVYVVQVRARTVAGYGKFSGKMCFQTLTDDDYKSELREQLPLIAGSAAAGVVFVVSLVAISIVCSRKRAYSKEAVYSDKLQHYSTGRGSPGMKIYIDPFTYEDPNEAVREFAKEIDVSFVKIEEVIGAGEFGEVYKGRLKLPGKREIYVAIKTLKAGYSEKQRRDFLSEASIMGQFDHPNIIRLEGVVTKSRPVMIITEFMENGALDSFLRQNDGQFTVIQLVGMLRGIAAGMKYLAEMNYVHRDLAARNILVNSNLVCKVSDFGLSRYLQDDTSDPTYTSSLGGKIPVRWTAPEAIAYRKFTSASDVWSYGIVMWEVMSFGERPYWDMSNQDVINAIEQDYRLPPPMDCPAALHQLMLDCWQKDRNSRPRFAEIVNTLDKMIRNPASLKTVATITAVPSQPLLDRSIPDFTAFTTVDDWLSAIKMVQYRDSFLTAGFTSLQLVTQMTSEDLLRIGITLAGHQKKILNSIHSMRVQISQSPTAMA
The protocol:
(§1) The Kinome Screening was performed by Reaction Biology Europe GmbH (http://reactionbiology.com; Freiburg i. Br., Germany).

Assay [2] deals with T2, PAK7 (Homo sapiens, UniProt Q9P286).
T2 construct: purchased Reaction Biology Europe GmbH (formerly ProQinase)
T2 sequence (Q9P286 whole entry): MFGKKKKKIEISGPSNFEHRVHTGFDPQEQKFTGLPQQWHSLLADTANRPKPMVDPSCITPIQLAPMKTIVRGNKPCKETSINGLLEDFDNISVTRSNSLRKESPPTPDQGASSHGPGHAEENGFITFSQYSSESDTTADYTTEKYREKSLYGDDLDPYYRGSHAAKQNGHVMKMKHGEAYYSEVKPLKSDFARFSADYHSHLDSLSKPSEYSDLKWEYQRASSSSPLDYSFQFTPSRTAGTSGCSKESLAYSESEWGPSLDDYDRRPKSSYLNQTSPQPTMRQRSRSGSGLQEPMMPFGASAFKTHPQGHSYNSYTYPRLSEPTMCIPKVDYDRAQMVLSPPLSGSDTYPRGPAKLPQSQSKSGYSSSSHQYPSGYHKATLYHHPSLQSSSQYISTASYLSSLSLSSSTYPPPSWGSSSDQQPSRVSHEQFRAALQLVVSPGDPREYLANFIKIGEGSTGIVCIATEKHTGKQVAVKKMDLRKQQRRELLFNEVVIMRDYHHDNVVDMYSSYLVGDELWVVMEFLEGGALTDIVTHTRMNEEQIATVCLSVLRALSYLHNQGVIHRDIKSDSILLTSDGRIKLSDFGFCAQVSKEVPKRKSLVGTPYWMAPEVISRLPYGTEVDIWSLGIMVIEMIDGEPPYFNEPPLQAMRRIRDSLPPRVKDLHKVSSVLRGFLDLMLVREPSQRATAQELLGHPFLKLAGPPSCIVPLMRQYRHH
The protocol: as §1

Assay [3] has as its target T3, ACVR1 (Homo sapiens, UniProt Q04771).
T3 construct: purchased Reaction Biology Europe GmbH (formerly ProQinase)
T3 sequence (Q04771 21-509): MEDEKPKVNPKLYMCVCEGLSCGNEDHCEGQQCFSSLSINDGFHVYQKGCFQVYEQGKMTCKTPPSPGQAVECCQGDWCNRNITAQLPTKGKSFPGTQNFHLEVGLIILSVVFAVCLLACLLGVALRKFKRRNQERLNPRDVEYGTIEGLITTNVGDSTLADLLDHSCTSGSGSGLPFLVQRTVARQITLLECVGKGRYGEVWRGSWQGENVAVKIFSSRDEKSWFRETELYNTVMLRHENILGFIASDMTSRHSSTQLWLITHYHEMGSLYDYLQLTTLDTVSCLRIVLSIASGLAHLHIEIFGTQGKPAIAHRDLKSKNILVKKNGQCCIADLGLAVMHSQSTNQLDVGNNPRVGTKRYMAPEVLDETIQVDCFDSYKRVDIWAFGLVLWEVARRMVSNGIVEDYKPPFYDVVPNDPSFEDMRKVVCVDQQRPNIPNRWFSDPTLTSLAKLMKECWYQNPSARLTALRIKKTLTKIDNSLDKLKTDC
The protocol: as §1

In assay [4] the target is T4, MAP3K11 (Homo sapiens, UniProt Q16584).
T4 construct: purchased Reaction Biology Europe GmbH (formerly ProQinase)
T4 sequence (Q16584 whole entry): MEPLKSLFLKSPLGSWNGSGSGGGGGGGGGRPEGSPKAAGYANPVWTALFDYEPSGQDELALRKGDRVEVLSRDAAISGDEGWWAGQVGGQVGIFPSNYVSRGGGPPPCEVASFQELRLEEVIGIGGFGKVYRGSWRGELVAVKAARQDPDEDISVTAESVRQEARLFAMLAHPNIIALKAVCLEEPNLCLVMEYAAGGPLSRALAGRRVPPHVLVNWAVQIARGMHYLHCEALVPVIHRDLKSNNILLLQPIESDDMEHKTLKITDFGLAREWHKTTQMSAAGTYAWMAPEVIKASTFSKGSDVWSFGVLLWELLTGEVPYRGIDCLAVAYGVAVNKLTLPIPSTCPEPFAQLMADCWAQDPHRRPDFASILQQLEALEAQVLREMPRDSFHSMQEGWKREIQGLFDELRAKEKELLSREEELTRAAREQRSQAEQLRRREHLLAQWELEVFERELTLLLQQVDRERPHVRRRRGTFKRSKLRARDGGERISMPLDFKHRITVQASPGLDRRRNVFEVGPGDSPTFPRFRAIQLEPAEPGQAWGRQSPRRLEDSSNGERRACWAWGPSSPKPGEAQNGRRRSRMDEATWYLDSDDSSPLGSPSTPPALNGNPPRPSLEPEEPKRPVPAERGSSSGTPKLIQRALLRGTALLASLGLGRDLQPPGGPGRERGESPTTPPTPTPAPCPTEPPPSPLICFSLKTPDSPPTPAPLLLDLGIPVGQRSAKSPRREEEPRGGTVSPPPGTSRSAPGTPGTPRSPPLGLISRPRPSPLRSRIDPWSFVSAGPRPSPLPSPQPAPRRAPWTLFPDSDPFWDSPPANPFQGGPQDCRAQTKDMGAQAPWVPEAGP
The procedure:
as §1

The target of assay [5] is T5, TBK1 (Homo sapiens, UniProt Q9UHD2).
T5 construct: purchased Reaction Biology Europe GmbH (formerly ProQinase)
T5 sequence (Q9UHD2 1-729): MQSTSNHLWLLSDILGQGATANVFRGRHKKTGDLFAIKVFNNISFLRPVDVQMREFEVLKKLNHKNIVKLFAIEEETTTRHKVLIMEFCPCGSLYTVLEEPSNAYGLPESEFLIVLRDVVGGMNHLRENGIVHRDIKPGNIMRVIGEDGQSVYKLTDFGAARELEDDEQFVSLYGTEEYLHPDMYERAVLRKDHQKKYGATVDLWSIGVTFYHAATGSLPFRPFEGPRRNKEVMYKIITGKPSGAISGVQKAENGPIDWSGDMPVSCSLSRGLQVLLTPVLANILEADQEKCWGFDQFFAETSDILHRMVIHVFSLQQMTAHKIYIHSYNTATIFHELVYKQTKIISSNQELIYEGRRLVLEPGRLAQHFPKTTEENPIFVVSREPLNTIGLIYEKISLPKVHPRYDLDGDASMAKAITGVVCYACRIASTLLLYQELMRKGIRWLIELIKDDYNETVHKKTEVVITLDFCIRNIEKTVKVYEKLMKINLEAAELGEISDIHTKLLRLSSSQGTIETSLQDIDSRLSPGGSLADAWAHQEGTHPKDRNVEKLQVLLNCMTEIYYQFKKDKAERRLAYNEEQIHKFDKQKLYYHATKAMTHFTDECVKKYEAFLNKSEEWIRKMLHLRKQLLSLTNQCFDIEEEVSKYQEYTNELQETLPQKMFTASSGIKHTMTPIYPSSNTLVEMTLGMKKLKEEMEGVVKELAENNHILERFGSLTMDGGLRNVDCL
The protocol:
as §1

Assay [6] deals with T6, TGFBR2 (Homo sapiens, UniProt P37173).
T6 construct: purchased Reaction Biology Europe GmbH (formerly ProQinase)
T6 sequence (P37173 23-567): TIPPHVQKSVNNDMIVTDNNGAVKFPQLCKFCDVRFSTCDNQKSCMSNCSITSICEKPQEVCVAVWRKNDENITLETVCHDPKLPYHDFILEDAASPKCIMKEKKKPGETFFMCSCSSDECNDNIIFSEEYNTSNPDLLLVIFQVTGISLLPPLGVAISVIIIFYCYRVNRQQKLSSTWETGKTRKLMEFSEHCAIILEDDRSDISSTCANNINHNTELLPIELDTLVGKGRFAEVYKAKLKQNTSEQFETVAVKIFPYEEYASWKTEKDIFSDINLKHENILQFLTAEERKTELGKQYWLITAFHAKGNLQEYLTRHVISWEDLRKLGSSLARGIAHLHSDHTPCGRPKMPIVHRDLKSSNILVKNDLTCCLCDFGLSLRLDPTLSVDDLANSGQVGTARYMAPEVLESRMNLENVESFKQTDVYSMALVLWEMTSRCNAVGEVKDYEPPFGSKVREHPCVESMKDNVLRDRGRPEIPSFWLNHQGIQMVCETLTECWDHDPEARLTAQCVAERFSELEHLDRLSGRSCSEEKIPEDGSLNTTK
The procedure:
as §1

In assay [7] the target is T7, CDK13/CycK (Homo sapiens, UniProt Q14004).
T7 construct: purchased Reaction Biology Europe GmbH (formerly ProQinase)
The procedure:
as §1

For assay [8], the target named is T8, WNK2 (Homo sapiens, UniProt Q9Y3S1).
T8 construct: purchased Reaction Biology Europe GmbH (formerly ProQinase)
T8 sequence (Q9Y3S1 whole entry): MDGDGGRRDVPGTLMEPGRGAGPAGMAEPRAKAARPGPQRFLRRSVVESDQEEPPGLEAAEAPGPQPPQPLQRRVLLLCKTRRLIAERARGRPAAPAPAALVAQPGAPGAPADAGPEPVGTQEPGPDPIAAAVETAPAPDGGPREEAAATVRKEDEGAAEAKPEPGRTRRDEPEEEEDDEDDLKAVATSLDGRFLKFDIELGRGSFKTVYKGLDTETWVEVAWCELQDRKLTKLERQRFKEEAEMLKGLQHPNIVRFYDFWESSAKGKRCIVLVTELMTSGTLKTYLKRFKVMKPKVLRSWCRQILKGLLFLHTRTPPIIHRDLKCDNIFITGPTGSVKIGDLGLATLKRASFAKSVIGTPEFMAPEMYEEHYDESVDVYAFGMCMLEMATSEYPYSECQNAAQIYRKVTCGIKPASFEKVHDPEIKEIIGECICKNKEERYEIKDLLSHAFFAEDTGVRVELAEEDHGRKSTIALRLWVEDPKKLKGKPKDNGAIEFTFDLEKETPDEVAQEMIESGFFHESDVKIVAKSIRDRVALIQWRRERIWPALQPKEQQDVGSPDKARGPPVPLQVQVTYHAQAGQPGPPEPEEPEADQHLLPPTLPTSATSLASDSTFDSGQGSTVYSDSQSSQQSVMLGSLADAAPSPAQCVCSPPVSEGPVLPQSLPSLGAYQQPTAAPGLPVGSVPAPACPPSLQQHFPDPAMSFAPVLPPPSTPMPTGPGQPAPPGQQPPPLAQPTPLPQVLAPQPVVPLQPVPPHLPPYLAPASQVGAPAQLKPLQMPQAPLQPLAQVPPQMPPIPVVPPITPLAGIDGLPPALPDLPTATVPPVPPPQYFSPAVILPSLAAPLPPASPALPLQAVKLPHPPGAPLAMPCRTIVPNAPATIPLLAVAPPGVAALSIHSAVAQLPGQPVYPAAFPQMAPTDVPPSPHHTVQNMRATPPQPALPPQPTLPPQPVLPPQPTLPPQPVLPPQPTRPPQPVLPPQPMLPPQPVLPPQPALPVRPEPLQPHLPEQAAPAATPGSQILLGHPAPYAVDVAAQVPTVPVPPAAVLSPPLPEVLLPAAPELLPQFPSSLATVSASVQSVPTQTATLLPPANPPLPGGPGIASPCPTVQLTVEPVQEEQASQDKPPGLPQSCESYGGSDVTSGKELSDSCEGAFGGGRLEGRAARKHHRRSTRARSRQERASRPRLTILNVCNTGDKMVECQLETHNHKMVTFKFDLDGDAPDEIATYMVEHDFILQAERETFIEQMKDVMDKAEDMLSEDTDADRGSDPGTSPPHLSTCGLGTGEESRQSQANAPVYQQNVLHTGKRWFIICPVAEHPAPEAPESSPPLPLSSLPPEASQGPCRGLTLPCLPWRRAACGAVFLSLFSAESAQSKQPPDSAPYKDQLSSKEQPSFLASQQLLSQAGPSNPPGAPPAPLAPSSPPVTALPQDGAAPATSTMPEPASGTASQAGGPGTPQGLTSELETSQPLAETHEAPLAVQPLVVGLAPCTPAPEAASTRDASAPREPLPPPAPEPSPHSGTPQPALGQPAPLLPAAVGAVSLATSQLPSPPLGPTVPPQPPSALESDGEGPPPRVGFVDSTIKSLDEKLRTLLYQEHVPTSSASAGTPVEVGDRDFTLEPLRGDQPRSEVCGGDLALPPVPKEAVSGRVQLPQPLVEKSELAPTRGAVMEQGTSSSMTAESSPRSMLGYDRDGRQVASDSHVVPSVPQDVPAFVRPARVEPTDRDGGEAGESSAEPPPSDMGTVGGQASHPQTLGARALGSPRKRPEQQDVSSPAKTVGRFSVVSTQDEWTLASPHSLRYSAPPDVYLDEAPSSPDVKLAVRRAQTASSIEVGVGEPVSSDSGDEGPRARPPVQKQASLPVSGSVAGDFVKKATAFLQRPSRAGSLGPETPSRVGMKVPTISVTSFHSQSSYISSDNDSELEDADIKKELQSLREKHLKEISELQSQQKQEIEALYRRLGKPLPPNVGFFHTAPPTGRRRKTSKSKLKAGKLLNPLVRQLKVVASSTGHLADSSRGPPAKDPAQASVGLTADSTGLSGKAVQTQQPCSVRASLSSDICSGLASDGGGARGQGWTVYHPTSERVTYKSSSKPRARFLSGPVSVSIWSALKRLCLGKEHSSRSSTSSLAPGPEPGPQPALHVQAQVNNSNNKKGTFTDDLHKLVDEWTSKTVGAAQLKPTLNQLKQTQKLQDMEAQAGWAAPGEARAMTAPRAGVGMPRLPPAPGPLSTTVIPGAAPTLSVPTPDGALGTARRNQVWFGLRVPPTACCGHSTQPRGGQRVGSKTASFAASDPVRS
The protocol: as §1

As for `c1ccc(CNc2cc(-c3c[nH]c4ncccc34)ccn2)cc1` [meriolin 36], the residual kinase activity in assay [1] (0.3 µM) is given as 124 % of control; in assay [1] (3 µM) it was 79 % of control; in assay [2] (0.3 µM), 42 % of control; in assay [2] (3 µM) it was 9 % of control; in assay [3] (0.3 µM) it was 24 % of control; in assay [3] (3 µM), 1 % of control. Also, the residual kinase activity is given as 45 % of control in assay [4] (0.3 µM); 4 % of control in assay [4] (3 µM); 48 % of control in assay [5] (0.3 µM); 10 % of control in assay [5] (3 µM); 72 % of control in assay [6] (0.3 µM); 24 % of control in assay [6] (3 µM). Further, the residual kinase activity is 12 % of control in assay [7] (0.3 µM), -10 % of control in assay [7] (3 µM), 86 % of control in assay [8] (0.3 µM) and 74 % of control in assay [8] (3 µM).

Take `COc1ccnc2[nH]cc(-c3cc(N)nc(N)c3)c12` [meriolin 16]: the residual kinase activity in assay [1] (0.03 µM) is recorded as 98 % of control; in assay [1] (0.3 µM), 97 % of control; in assay [2] (0.03 µM) it was 89 % of control; in assay [2] (0.3 µM), 81 % of control; in assay [3] (0.03 µM), 89 % of control; in assay [3] (0.3 µM), 72 % of control. Further, the residual kinase activity in assay [4] (0.03 µM) is listed as 100 % of control; in assay [4] (0.3 µM) it was 74 % of control; in assay [5] (0.03 µM) it was 114 % of control; in assay [5] (0.3 µM), 99 % of control; in assay [6] (0.03 µM) it was 109 % of control; in assay [6] (0.3 µM), 85 % of control. For the same molecule, the residual kinase activity is listed as 31 % of control in assay [7] (0.03 µM), 5 % of control in assay [7] (0.3 µM), 99 % of control in assay [8] (0.03 µM) and 86 % of control in assay [8] (0.3 µM).
